Experimental data reported in ChEMBL document CHEMBL1921674, “Novel tricyclic inhibitors of IKK2: discovery and SAR leading to the identification of 2-methoxy-N-((6-(1-methyl-4-(methylamino)-1,6-dihydroimidazo[4,5-d]pyrrolo[2,3-b]pyridin-7-yl)pyridin-2-yl)methyl)acetamide (BMS-066)” (Bioorg Med Chem Lett, 2011).
Calls of active or inactive are those of the source. No cut-off for these calls is given here.

Tests used:
[1] = Clearance in dog at 1 mg/kg, iv; format: ADME, organism-based, Canis lupus familiaris; parameters: dose 1 mg/kg, route intravenous; conditions: in vivo
[2] = Protein binding in human serum; format: ADME, cell-free; conditions: read-out: PB (converted)
Ephrin type-A receptor 1 = Ephrin type-A receptor 1 (Homo sapiens, UniProt P21709); experiment: Inhibition of EPHA1
Chain of Ephrin type-A receptor 1 (P21709 whole entry): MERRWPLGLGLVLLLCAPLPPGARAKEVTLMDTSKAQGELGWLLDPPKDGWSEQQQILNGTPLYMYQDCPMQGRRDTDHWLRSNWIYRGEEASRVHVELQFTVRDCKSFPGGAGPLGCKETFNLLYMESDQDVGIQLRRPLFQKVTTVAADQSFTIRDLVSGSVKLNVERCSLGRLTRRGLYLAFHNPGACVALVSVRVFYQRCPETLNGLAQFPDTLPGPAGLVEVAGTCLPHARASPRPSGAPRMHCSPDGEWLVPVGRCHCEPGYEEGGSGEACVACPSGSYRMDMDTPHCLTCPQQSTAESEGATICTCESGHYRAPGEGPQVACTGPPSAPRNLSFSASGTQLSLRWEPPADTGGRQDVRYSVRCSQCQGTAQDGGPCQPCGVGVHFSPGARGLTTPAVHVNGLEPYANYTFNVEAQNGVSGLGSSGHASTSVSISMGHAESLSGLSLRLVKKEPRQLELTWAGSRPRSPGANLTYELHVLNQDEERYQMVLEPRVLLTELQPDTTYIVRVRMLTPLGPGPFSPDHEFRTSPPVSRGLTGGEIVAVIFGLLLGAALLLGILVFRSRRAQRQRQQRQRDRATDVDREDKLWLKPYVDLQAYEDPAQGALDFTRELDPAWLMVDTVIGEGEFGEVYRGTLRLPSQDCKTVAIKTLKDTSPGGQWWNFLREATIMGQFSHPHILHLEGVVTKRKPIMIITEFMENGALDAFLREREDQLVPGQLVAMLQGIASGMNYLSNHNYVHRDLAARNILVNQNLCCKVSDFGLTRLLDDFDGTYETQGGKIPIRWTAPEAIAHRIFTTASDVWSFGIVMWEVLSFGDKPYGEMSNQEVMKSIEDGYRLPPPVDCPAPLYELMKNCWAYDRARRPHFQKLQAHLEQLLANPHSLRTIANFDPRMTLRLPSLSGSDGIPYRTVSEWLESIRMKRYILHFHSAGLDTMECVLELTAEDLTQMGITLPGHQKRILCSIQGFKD

[3] = Cmax in mouse at 3 mg/kg, po; format: ADME, organism-based; parameters: dose 3 mg/kg, route oral; conditions: in vivo
Mus musculus [4] = experiment: Reduction in TNBS-induced colitis in mouse […] model assessed as decrease of colon length at 10 mg/kg, administered intrarectally 1 day before TNBS challenge twice daily for 4 days; format: functional, organism-based; parameters: dose 10 mg/kg
[5] = Dissociation constant, pKa of the compound; format: physicochemical
[6] = AUC in SJL mouse intestine at 8 mg/kg, iv after 8 hrs; format: ADME, organism-based; parameters: time < 8 hr, dose 8 mg/kg, route intravenous
[7] = Half life in dog at 1 mg/kg, iv; format: ADME, organism-based, Canis lupus familiaris; parameters: dose 1 mg/kg, route intravenous; conditions: in vivo
[8] = Volume of distribution at steady state in Lewis rat at 2 mg/kg, iv; format: ADME, organism-based; parameters: dose 2 mg/kg, route intravenous; conditions: in vivo, read-out: Vdss
[9] = molecular target: T1, Vascular endothelial growth factor receptor 2 (Homo sapiens, UniProt P35968); conditions: 10 uM
T1 sequence (P35968 whole entry): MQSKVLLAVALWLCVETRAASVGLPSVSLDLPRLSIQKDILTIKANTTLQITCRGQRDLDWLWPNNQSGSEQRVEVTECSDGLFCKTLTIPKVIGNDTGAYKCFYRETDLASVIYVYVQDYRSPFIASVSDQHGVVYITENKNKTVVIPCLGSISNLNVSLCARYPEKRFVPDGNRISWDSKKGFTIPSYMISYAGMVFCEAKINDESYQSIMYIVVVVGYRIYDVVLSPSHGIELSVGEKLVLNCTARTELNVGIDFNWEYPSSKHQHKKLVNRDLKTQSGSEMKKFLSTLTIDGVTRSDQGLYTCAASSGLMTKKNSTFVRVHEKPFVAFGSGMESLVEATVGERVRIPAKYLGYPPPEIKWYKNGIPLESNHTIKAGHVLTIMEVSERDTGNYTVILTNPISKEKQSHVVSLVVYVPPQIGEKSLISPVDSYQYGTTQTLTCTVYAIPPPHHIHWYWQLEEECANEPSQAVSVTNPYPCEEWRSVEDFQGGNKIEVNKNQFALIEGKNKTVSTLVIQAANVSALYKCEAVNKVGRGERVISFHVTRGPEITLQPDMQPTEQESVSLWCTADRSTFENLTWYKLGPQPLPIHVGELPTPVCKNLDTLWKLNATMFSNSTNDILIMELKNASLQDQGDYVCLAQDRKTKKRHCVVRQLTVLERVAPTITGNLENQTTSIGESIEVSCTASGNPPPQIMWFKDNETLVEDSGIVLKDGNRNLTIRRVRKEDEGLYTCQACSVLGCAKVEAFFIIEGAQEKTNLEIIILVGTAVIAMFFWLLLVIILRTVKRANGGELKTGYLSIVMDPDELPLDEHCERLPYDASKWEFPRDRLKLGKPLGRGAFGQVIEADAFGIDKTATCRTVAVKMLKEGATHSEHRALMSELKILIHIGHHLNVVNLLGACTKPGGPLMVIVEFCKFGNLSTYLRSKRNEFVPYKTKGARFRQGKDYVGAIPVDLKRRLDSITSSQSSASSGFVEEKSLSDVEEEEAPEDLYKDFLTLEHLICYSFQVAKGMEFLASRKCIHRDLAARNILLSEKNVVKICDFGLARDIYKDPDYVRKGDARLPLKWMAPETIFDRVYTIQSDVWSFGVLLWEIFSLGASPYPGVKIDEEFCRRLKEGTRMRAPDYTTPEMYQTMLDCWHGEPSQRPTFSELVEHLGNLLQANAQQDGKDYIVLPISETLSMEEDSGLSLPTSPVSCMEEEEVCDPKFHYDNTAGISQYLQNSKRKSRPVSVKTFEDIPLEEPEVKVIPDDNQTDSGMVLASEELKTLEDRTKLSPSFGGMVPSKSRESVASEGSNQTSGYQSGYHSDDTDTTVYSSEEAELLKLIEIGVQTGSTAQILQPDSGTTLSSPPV
Description: Inhibition of KDR at 10 uM

[10] = molecular target: Inhibitor of nuclear factor kappa-B kinase subunit alpha (Homo sapiens) (UniProt O15111); experiment: Inhibition of IKK1 at 10 uM
Chain of Inhibitor of nuclear factor kappa-B kinase subunit alpha (Homo sapiens) (O15111 whole entry): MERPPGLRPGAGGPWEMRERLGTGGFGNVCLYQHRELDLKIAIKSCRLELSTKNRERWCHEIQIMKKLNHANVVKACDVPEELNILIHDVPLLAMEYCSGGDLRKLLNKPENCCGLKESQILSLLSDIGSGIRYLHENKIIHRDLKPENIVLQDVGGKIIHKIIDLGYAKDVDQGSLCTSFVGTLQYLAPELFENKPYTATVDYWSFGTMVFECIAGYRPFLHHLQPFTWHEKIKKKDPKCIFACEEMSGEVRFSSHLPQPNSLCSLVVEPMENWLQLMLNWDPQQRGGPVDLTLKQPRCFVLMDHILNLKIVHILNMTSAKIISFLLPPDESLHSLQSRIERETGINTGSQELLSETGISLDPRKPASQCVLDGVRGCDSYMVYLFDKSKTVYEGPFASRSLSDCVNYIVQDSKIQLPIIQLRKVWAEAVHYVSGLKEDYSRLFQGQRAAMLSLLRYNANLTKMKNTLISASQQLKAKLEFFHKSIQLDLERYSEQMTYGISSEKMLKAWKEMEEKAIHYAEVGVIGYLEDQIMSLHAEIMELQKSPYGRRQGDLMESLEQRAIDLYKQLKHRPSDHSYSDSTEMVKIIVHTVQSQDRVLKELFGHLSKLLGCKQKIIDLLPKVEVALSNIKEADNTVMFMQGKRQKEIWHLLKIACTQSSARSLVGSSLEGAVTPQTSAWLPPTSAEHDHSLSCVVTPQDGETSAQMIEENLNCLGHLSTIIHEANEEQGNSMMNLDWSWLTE

[11] = AUC in Sprague-Dawley rat plasma at 2 mg/kg, iv after 8 hrs; format: ADME, organism-based; parameters: time < 8 hr, dose 2 mg/kg, route intravenous
Mus musculus [12] = experiment: Reduction in TNBS-induced colitis in mouse […] model assessed as decrease in tissue damage at 10 mg/kg administered intrarectally 1 day before TNBS challenge twice daily for 4 days by hematoxylin-eosin staining relative to control; format: functional, organism-based; parameters: dose 10 mg/kg
[13] = molecular target: Vascular endothelial growth factor receptor 3 (Homo sapiens, UniProt P35916); experiment: Inhibition of FLT4 at 10 uM
Mus musculus [14] = experiment: Reduction in TNBS-induced colitis in mouse […] model assessed as decrease of colon length at 3 mg/kg, administered intrarectally 1 day before TNBS challenge twice daily for 4 days; format: functional
Mus musculus [15] = experiment: Reduction in TNBS-induced colitis in mouse […] model assessed as decrease in inflammation histological score at 10 mg/kg administered intrarectally 1 day before TNBS challenge twice daily for 4 days by hematoxylin-eosin staining relative to control; format: functional, organism-based; parameters: dose 10 mg/kg
[16] = AUC in Sprague-Dawley rat intestine at 2 mg/kg, iv after 8 hrs; format: ADME, organism-based; parameters: time < 8 hr, dose 2 mg/kg, route intravenous
[17] = Cmax in dog at 5 mg/kg, po; format: ADME, organism-based, Canis lupus familiaris; parameters: dose 5 mg/kg, route oral; conditions: in vivo
[18] = AUC in dog at 5 mg/kg, po; format: ADME, organism-based, Canis lupus familiaris; parameters: dose 5 mg/kg, route oral; conditions: plasma
[19] = Volume of distribution at steady state in dog at 1 mg/kg, iv; format: ADME, organism-based, Canis lupus familiaris; parameters: dose 1 mg/kg, route intravenous; conditions: in vivo, read-out: Vdss
[20] = AUC in Lewis rat at 10 mg/kg, po; format: ADME, organism-based; parameters: dose 10 mg/kg, route oral; conditions: plasma
Blood [21] = experiment: Antiinflammatory activity in human whole blood assessed as inhibition of LPS-induced TNFalpha release treated for 45 mins before LPS challenge measured after 6 hrs by ELISA; format: functional, tissue-based; conditions: Homo sapiens, Blood
[22] = Oral bioavailability in dog at 5 mg/kg; format: ADME, organism-based, Canis lupus familiaris; conditions: in vivo
Blood [23] = experiment: Antiinflammatory activity in mouse whole blood assessed as inhibition of LPS-induced TNFalpha release treated for 45 mins before LPS challenge measured after 6 hrs by ELISA; format: functional, tissue-based
Salmonella typhimurium = experiment: Induction of mutagenicity in Salmonella Typhimurium by Ames test; format: toxicity, organism-based; conditions: salmonella enterica subsp. enterica serovar typhimurium
[24] = Clearance in Lewis rat at 2 mg/kg, iv; format: ADME, organism-based; parameters: dose 2 mg/kg, route intravenous; conditions: in vivo
[25] = Cmax in Lewis rat at 10 mg/kg, po; format: ADME, organism-based; parameters: dose 10 mg/kg, route oral; conditions: in vivo
Mus musculus [26] = experiment: Reduction in TNBS-induced colitis in mouse […] model assessed as decrease of body weight at 3 mg/kg, administered intrarectally 1 day before TNBS challenge twice daily for 4 days; format: functional; parameters: scale not given: the % may be the effect or the level left
[27] = Volume of distribution at steady state in mouse at 2 mg/kg, iv; format: ADME, organism-based; parameters: dose 2 mg/kg, route intravenous; conditions: in vivo, read-out: Vdss
[28] = Oral bioavailability in mouse at 3 mg/kg; format: ADME, organism-based; conditions: in vivo
Mus musculus [29] = experiment: Reduction in TNBS-induced colitis in mouse […] model assessed as decrease of body weight loss at 10 mg/kg, administered intrarectally 1 day before TNBS challenge twice daily for 4 days; format: functional, organism-based; parameters: dose 10 mg/kg
[30] = Oral bioavailability in Lewis rat at 10 mg/kg; format: ADME, organism-based; conditions: in vivo
PBMC = experiment: Antiinflammatory activity in human PBMC assessed as inhibition of LPS-induced TNFalpha release treated for 5 mins before LPS challenge measured after 4 hrs by ELISA; format: functional, cell-based; conditions: Homo sapiens, PBMC
Cytochrome P450 3A4 = Cytochrome P450 3A4 (Homo sapiens, UniProt P08684); experiment: Inhibition of CYP3A4; format: ADME
Chain of Cytochrome P450 3A4 (P08684 whole entry): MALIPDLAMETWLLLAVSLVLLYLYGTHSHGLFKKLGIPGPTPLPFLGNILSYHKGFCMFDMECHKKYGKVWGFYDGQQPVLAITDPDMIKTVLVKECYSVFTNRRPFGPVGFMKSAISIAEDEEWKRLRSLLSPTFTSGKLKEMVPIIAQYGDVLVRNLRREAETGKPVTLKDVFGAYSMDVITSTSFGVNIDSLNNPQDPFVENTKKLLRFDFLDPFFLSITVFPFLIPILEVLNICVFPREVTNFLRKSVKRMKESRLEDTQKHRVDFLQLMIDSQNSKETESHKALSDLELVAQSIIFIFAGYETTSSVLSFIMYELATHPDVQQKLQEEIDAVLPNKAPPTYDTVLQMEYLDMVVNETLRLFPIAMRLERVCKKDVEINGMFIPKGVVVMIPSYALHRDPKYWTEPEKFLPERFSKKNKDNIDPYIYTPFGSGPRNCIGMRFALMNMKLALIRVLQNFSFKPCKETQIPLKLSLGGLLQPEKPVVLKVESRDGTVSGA

[31] = molecular target: T2, Protein-tyrosine kinase 6 (Homo sapiens, UniProt Q13882); experiment: Inhibition of BRK
[32] = molecular target: Inhibitor of nuclear factor kappa-B kinase subunit alpha (Homo sapiens, UniProt O15111); experiment: Inhibition of IKK1
Chain of Inhibitor of nuclear factor kappa-B kinase subunit alpha (O15111 whole entry): as the sequence (O15111 whole entry) above

[33] = Protein binding in mouse serum; format: ADME, cell-free; conditions: read-out: PB (converted)
[34] = molecular target: T1, Vascular endothelial growth factor receptor 2; experiment: Inhibition of KDR
[35] = AUC in SJL mouse plasma at 8 mg/kg, iv after 8 hrs; format: ADME, organism-based; parameters: time < 8 hr, dose 8 mg/kg, route intravenous
[36] = molecular target: Proto-oncogene tyrosine-protein kinase receptor Ret (Homo sapiens, UniProt P07949); experiment: Inhibition of RET
hERG (KCNH2) = hERG (KCNH2) (Homo sapiens, UniProt Q12809); experiment: Inhibition of human ERG at 30 uM by patch clamp assay
[37] = molecular target: T2, Protein-tyrosine kinase 6; experiment: Inhibition of BRK at 10 uM
[38] = molecular target: Inhibitor of nuclear factor kappa-B kinase subunit beta (Homo sapiens) (UniProt O14920); experiment: Inhibition of human IKK2 at 10 uM
Chain of Inhibitor of nuclear factor kappa-B kinase subunit beta (Homo sapiens) (O14920 whole entry): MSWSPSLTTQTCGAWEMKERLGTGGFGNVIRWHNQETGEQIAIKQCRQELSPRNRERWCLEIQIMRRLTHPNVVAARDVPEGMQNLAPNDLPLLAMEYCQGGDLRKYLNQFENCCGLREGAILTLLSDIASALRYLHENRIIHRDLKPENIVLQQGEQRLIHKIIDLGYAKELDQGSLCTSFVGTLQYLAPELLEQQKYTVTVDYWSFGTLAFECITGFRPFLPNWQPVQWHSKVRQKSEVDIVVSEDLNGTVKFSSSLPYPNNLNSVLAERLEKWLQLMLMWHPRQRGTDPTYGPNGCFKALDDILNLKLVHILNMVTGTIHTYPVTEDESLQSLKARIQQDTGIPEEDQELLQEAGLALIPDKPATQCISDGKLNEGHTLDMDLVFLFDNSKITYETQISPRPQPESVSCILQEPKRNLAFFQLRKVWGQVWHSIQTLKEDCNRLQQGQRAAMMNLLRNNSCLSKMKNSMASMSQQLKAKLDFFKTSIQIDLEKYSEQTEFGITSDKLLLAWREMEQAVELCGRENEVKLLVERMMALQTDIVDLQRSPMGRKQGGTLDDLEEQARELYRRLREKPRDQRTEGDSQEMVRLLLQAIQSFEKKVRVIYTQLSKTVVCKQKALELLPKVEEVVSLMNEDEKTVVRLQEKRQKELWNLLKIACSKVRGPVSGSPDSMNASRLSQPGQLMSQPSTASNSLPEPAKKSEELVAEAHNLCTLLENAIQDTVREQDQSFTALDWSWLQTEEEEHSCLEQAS

Cytochrome P450 1A2 = Cytochrome P450 1A2 (Homo sapiens, UniProt P05177); experiment: Inhibition of CYP1A2; format: ADME
Chain of Cytochrome P450 1A2 (P05177 whole entry): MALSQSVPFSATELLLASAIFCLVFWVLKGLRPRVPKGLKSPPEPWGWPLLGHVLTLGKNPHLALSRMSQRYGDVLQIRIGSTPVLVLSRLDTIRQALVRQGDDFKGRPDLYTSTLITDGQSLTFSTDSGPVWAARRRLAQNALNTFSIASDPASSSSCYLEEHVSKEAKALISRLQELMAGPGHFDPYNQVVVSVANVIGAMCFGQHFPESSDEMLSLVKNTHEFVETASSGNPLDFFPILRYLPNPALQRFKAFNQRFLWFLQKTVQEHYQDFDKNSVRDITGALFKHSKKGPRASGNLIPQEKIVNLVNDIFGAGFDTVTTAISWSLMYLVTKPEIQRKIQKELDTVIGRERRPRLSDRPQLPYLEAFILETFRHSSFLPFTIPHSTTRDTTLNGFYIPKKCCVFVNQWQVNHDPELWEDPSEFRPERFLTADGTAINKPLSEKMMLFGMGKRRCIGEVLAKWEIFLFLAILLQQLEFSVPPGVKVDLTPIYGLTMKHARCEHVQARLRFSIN

[39] = molecular target: Ephrin type-A receptor 1 (Homo sapiens) (UniProt P21709); experiment: Inhibition of EPHA1 at 10 uM
Chain of Ephrin type-A receptor 1 (Homo sapiens) (P21709 whole entry): as the sequence (P21709 whole entry) above

With `CNc1nc2[nH]c(-c3cccc(CNC(=O)COC)n3)cc2c2c1ncn2C` as the compound, how does the clearance [1] read?
Its clearance is 0.186 L/h/kg.

And the fraction unbound [2]?
Its fraction unbound is 0.074.

What about the IC50 (Ephrin type-A receptor 1) of the same compound?
Its IC50 is 0.686 µM.

What about the Cmax [3] of the same compound?
The Cmax was 1.6 µM.

What about the Activity (Mus musculus [4]) of the same compound?
Its Activity is “Active”.

What about the pKa [5] of the same compound?
Its pKa is 2.5.

And the AUC at 8 h [6]?
Its AUC at 8 h is 1170 µM·h.

And the half-life [7]?
Its half-life is 3.3 h.

What about the Vd [8] of the same compound?
Its Vd is 0.5 L/kg.

And the inhibition [9]?
The inhibition was greater than 75%.

And the inhibition [10]?
Its inhibition is greater than 75%.

What about the AUC at 8 h [11] of the same compound?
The AUC at 8 h was 13 µM·h.

And the Activity (Mus musculus [12])?
The Activity was “Active”.

And the inhibition [13]?
The inhibition was greater than 75%.

What about the Activity (Mus musculus [14]) of the same compound?
Its Activity is 1 cm.

What about the Activity (Mus musculus [15]) of the same compound?
Its Activity is “Active”.

And the AUC at 8 h [16]?
Its AUC at 8 h is 156 µM·h.

What about the Cmax [17] of the same compound?
The Cmax was 10.3 µM.

What about the AUC [18] of the same compound?
Its AUC is 50 µM·h.

What about the Vd [19] of the same compound?
The Vd was 0.6 L/kg.

And the AUC [20]?
Its AUC is 89 µM·h.

And the IC50 (Blood [21])?
The IC50 was 1 µM.

And the bioavailability [22]?
Its bioavailability is 72%.

And the IC50 (Blood [23])?
The IC50 was 1.2 µM.

What about the Activity (Salmonella typhimurium) of the same compound?
Its Activity is “Non-toxic”.

And the clearance [24]?
The clearance was 0.27 L/h/kg.

What about the Cmax [25] of the same compound?
Its Cmax is 17.6 µM.

And the Activity (Mus musculus [26])?
Its Activity is 10%.

And the Vd [27]?
Its Vd is 1.8 L/kg.

And the bioavailability [28]?
The bioavailability was 79%.

And the Activity (Mus musculus [29])?
The Activity was “Active”.

And the bioavailability [30]?
Its bioavailability is 90%.

And the IC50 (PBMC)?
The IC50 was 0.15 µM.

And the IC50 (Cytochrome P450 3A4)?
The IC50 was greater than 40 µM.

And the IC50 [31]?
The IC50 was 0.31 µM.

What about the IC50 [32] of the same compound?
The IC50 was 4.96 µM.

And the fraction unbound [33]?
Its fraction unbound is 0.084.

What about the IC50 [34] of the same compound?
The IC50 was 1.49 µM.

And the AUC at 8 h [35]?
The AUC at 8 h was 18 µM·h.

What about the IC50 [36] of the same compound?
The IC50 was 0.614 µM.

And the inhibition at 30 µM (hERG (KCNH2))?
The inhibition at 30 µM was 18%.

What about the inhibition [37] of the same compound?
The inhibition was greater than 75%.

And the inhibition [38]?
The inhibition was greater than 75%.

What about the IC50 (Cytochrome P450 1A2) of the same compound?
Its IC50 is greater than 40 µM.

And the inhibition [39]?
The inhibition was greater than 75%.
